Experimental data as given in US8889878B2, “Haloalky-substituted amides as insecticides and acaricides” (Bayer CropScience AG, priority 2009, dated 2014).

Experiments:
[1] = tested on: mustard beetle (Phaedon cochleariae); experiment: Phaedon test (PHAECO spray treatment), Example 7; type: in vivo; settings: application rate 20 g/ha, china cabbage leaf discs sprayed, after 7 days
Protocol: Phaedon Test (PHAECO Spray Treatment)
(§1) • Solvent: 78.0 parts by weight of acetone • 1.5 parts by weight of dimethylformamide • Emulsifier: 0.5 part by weight of alkylaryl polyglycol ether
To prepare an active ingredient formulation, 1 part by weight of active ingredient is mixed with the stated amounts of solvent and emulsifier, and the concentrate is diluted with emulsifier-containing water to the desired concentration. Leaf discs from china cabbage (Brassica pekinensis) are sprayed with an active ingredient formulation of the desired concentration and, after drying, populated with larvae of the mustard beetle (Phaedon cochleariae).
After 7 days, the efficacy in % is determined. 100% means that all beetle larvae were killed; 0% means that no beetle larvae were killed.

[2] = logP by HPLC on reverse-phase column (EEC Directive 79/831 Annex V.A8); type: physicochemical
Protocol: The logP values reported in the above Tables and Preparation Examples were determined according to EEC Directive 79/831 Annex V.A8 by HPLC (High Performance Liquid Chromatography) on a reverse-phase column (C18). Temperature 43° C.

[3] = tested on: Boophilus microplus; experiment: Boophilus microplus test (BOOPMI injection), Example 11; type: in vivo; settings: application rate 20 μg/animal, injected into abdomen, after 7 days
Protocol: Boophilus microplus Test (BOOPMI Injection) • Solvent: dimethyl sulphoxide To prepare an appropriate active ingredient formulation, 10 mg of active ingredient are mixed with 0.5 ml of solvent and the concentrate is diluted with solvent to the desired concentration. The active ingredient solution is injected into the abdomen (Boophilus microplus), and the animals are transferred to dishes and stored in a climate-controlled room. The efficacy was assessed by the number of fertile eggs laid. After 7 days, the efficacy in % is determined. 100% means that none of the ticks has laid any fertile eggs.

[4] = tested on: armyworm (Spodoptera frugiperda); experiment: Spodoptera frugiperda test (SPODFR spray treatment), Example 15; type: in vivo; settings: maize leaf discs sprayed, after 7 days
Protocol: Spodoptera frugiperda Test (SPODFR Spray Treatment)
as §1
To prepare an appropriate active ingredient formulation, 1 part by weight of active ingredient is mixed with the stated amounts of solvent and emulsifier, and the concentrate is diluted with emulsifier-containing water to the desired concentration. Leaf discs from maize (Zea mays) are sprayed with an active ingredient formulation of the desired concentration and, after drying, populated with caterpillars of the armyworm (Spodoptera frugiperda).
After 7 days, the efficacy in % is determined. 100% means that all caterpillars were killed; 0% means that no caterpillars were killed.

[5] = HPLC, C18 reverse phase, 43° C., acidic range pH 2.7, calibration with alkan-2-ones

Structure (SMILES) | efficacy in % [1] | logP ([2]; HPLC-MS) | further results
O=C(NC(c1cc(Cl)cc(Cl)c1)C(F)(F)F)c1cc2ccc(C(=O)NC3CC3)c(Cl)c2[nH]1 (racemic) [Ic-22] | 100% |  | logP [2, 5]: HPLC-MS: logP = 3.42; mass
O=C(NC(c1cccc(C(F)(F)F)c1)C(F)(F)F)c1cc2cc(C(=O)NCc3ccccn3)c(Cl)cc2[nH]1 (racemic) [Ic-23] | 100% |  | logP [2, 5]: HPLC-MS: logP = 2.49; mass
O=C(/C=C/c1ccc(C(=O)NC2CC2)c(C(F)(F)F)c1)NC(c1ccc(Cl)c(Cl)c1)C(F)(F)F (centres unmarked) [Ia-37] | 100% | HPLC-MS: logP = 3.41; mass | 
O=C(/C=C/c1ccc(C(=O)NC2CC2c2ccccc2)c(C(F)(F)F)c1)NC(c1cccc(C(F)(F)F)c1)C(F)(F)F (centres unmarked) [Ia-71] | 100% | HPLC-MS: logP = 4.22; mass | 
Cc1cc(/C=C/C(=O)NC(c2cccc(C(F)(F)F)c2)C(F)(F)F)ccc1C(=O)NC1COC1 (centres unmarked) [Ia-83] | 100% | HPLC-MS: logP = 2.69 mass | 
O=C(/C=C/c1ccc(C(=O)Nc2ccncc2)c(C(F)(F)F)c1)NC(c1cccc(C(F)(F)F)c1)C(F)(F)F (centres unmarked) [Ia-84] | 100% | HPLC-MS: logP = 1.99 mass | 
Cc1cc(/C=C/C(=O)NC(c2cccc(C(F)(F)F)c2)C(F)(F)F)ccc1C(=O)NC1CCOCC1 (centres unmarked) [Ia-86] | 100% | HPLC-MS: logP = 2.89 mass | 
Cc1cc(/C=C/C(=O)NC(c2cccc(C(F)(F)F)c2)C(F)(F)F)ccc1C(=O)NCc1ccc(F)cn1 (centres unmarked) [Ia-87] | 100% | HPLC-MS: logP = 3.13 mass | 
Cc1cc(/C=C/C(=O)NC(c2cccc(C(F)(F)F)c2)C(F)(F)F)ccc1C(=O)Nc1ccncc1 (centres unmarked) [Ia-88] | 100% | HPLC-MS: logP = 1.87 mass | 
CN(C(=O)c1ccc(/C=C/C(=O)NC(c2cccc(C(F)(F)F)c2)C(F)(F)F)cc1Br)c1ccccn1 (centres unmarked) [Ia-89] | 100% | HPLC-MS: logP = 3.47 mass | 
O=C(/C=C/c1ccc(C(=O)Nc2ccncc2)c(Br)c1)NC(c1cccc(C(F)(F)F)c1)C(F)(F)F (centres unmarked) [Ia-91] | 100% | HPLC-MS: logP = 1.96 mass | 
O=C(/C=C/c1ccc(C(=O)NC2CCOCC2)c(Cl)c1)NC(c1cccc(C(F)(F)F)c1)C(F)(F)F (centres unmarked) [Ia-97] | 100% | HPLC-MS: logP = 2.99 mass | 
O=C(/C=C/c1ccc(C(=O)Nc2ccccn2)c(Cl)c1)NC(c1cccc(C(F)(F)F)c1)C(F)(F)F (centres unmarked) [Ia-98] | 100% | HPLC-MS: logP = 3.47 mass | 
Cc1cc(/C=C/C(=O)NC(c2cccc(C(F)(F)F)c2)C(F)(F)F)ccc1C(=O)NC1CCC1 (centres unmarked) [Ia-101] | 100% | HPLC-MS: logP = 3.53 mass | 
Cc1cc(/C=C/C(=O)NC(c2cccc(C(F)(F)F)c2)C(F)(F)F)ccc1C(=O)NC(C)C (centres unmarked) [Ia-102] | 100% | HPLC-MS: logP = 3.27 mass | 
COC(=O)N(C)NC(=O)c1ccc(/C=C/C(=O)NC(c2cccc(C(F)(F)F)c2)C(F)(F)F)cc1Br (centres unmarked) [Ia-103] | 100% | HPLC-MS: logP = 2.89 mass | 
O=C(/C=C/c1ccc(C(=O)NCC(F)F)c(Br)c1)NC(c1cccc(C(F)(F)F)c1)C(F)(F)F (centres unmarked) [Ia-104] | 100% | HPLC-MS: logP = 3.23 mass | 
C#CCNC(=O)c1ccc(/C=C/C(=O)NC(c2cccc(C(F)(F)F)c2)C(F)(F)F)cc1Br (centres unmarked) [Ia-105] | 100% | HPLC-MS: logP = 3.09 mass | 
O=C(/C=C/c1ccc(C(=O)NC2CCCNC2=O)c(Cl)c1)NC(c1cccc(C(F)(F)F)c1)C(F)(F)F (centres unmarked) [Ia-106] | 100% | HPLC-MS: logP = 2.61 mass | 

Structure (SMILES) | efficacy in % [1] | logP ([2]; HPLC-MS) | further results
O=C(/C=C/c1ccc(C(=O)NCC(=O)NCC(F)(F)F)c(Cl)c1)NC(c1cccc(C(F)(F)F)c1)C(F)(F)F (centres unmarked) [Ia-107] | 100% | HPLC-MS: logP = 2.99 mass | 
COC(=O)NNC(=O)c1ccc(/C=C/C(=O)NC(c2cccc(C(F)(F)F)c2)C(F)(F)F)cc1Cl (centres unmarked) [Ia-109] | 100% | HPLC-MS: logP = 2.72 mass | 
CC(F)(F)CNC(=O)c1ccc(/C=C/C(=O)NC(c2cccc(C(F)(F)F)c2)C(F)(F)F)cc1Cl (centres unmarked) [Ia-111] | 100% | HPLC-MS: logP = 3.37 mass | 
O=C(/C=C/c1ccc(C(=O)Nc2cc(Cl)ccn2)c(C(F)(F)F)c1)NC(c1cccc(C(F)(F)F)c1)C(F)(F)F (centres unmarked) [Ia-121] |  | HPLC-MS: logP = 4.3; mass | efficacy in % (fertile eggs laid) [3]: 100%
Cn1ccc(NC(=O)c2ccc(/C=C/C(=O)NC(c3cccc(C(F)(F)F)c3)C(F)(F)F)cc2C(F)(F)F)n1 (centres unmarked) [Ia-124] |  | HPLC-MS: logP = 3.28; mass | efficacy in % (fertile eggs laid) [3]: 100%; efficacy in % ([4]; application rate 100 g/ha): 100%
O=C(/C=C/c1ccc(C(=O)Nc2ccncn2)c(C(F)(F)F)c1)NC(c1cccc(C(F)(F)F)c1)C(F)(F)F (centres unmarked) [Ia-125] |  | HPLC-MS: logP = 3.35; mass | efficacy in % (fertile eggs laid) [3]: 100%; efficacy in % ([4]; application rate 100 g/ha): 100%
O=C(/C=C/c1ccc(C(=O)NCc2cc(Cl)ccn2)c(C(F)(F)F)c1)NC(c1cccc(C(F)(F)F)c1)C(F)(F)F (centres unmarked) [Ia-126] |  | HPLC-MS: logP = 3.68; mass | efficacy in % (fertile eggs laid) [3]: 100%
N#CCNC(=O)c1ccc(/C=C/C(=O)NC(c2cccc(C(F)(F)F)c2)C(F)(F)F)cc1C(F)(F)F (centres unmarked) [Ia-129] |  | HPLC-MS: logP = 3.19; mass | efficacy in % (fertile eggs laid) [3]: 100%; efficacy in % ([4]; application rate 100 g/ha): 100%
O=C(/C=C/c1ccc(-n2cccn2)c(C(F)(F)F)c1)NC(c1cccc(C(F)(F)F)c1)C(F)(F)F (centres unmarked) [Ia-135] |  | HPLC-MS: logP = 3.95; mass | efficacy in % (fertile eggs laid) [3]: 100%
CCC(C)NC(=O)c1ccc(/C=C/C(=O)NC(c2cccc(C(F)(F)F)c2)C(F)(F)F)cc1C(F)(F)F (centres unmarked) [Ia-144] |  | HPLC-MS: logP = 3.84; mass | efficacy in % (fertile eggs laid) [3]: 100%
O=C(/C=C/c1ccc(C(=O)NCC=CCl)c(C(F)(F)F)c1)NC(c1cccc(C(F)(F)F)c1)C(F)(F)F (centres unmarked) [Ia-145] |  | HPLC-MS: logP = 3.69; mass | efficacy in % (fertile eggs laid) [3]: 100%
NC(=O)c1ccc(/C=C/C(=O)NC(c2cccc(C(F)(F)F)c2)C(F)(F)F)cc1Cl (centres unmarked) [Ia-157] |  | HPLC-MS: logP = 2.75; mass | efficacy in % (fertile eggs laid) [3]: 100%
O=C(/C=C/c1ccc(C(=O)NCc2nccs2)c(Cl)c1)NC(c1cccc(C(F)(F)F)c1)C(F)(F)F (centres unmarked) [Ia-159] |  | HPLC-MS: logP = 3.13; mass | efficacy in % (fertile eggs laid) [3]: 100%
CCOC1(NC(=O)c2ccc(/C=C/C(=O)NC(c3cccc(C(F)(F)F)c3)C(F)(F)F)cc2Br)CC1 (centres unmarked) [Ia-237] |  | HPLC-MS: logP = 3.42; mass | efficacy in % (fertile eggs laid) [3]: 100%
N#Cc1ccc2[nH]c(C(=O)NC(c3cccc(C(F)(F)F)c3)C(F)(F)F)cc2c1 (centres unmarked) [Ic-4] |  |  | efficacy in % ([4]; application rate 500 g/ha): 83%; logP [2, 5]: HPLC-MS: logP = 3.48; mass
O=C(NC(c1cc(Cl)cc(C(F)(F)F)c1)C(F)(F)F)c1cc2cc(Cl)c(C(=O)NC3CC3)cc2[nH]1 (centres unmarked) [Ic-20] | 100% |  | logP [2, 5]: HPLC-MS: logP = 3.47; mass
O=C(NC(c1ccc(Cl)c(Cl)c1)C(F)(F)F)c1cc2cc(Cl)c(C(=O)NC3CC3)cc2[nH]1 (centres unmarked) [Ic-21] | 100% |  | logP [2, 5]: HPLC-MS: logP = 3.28; mass
O=C(/C=C/c1ccc2c(c1)CCC2NC(=O)CC1CC1)NC(c1cccc(C(F)(F)F)c1)C(F)(F)F (centres unmarked) [Ie-2] |  |  | efficacy in % ([4]; application rate 100 g/ha): 100%; logP [2, 5]: HPLC-MS: logP = 3.54; mass
